Assay [1] concerns PA1 (ECACC, 90013101) cells. In words: Cell viability assay (Cell Titre Glo, 72 hours) in PA1 cells. Conditions: Homo sapiens, PA-1. The class given is cell-based. In a few lines: (§1)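 10-point dose response, top final concentration 30 μM, 1 in 3 dilutions; 5000 cells per well added directly to compound. Incubated 72 hours at 37° C, 5% CO2, then viability read by Cell Titre Glo luminescence and IC50 curves fitted.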

Assay [2] has as its system A2058 (ATCC, CRL-11147) cells. The experiment in a line: Cell viability assay (Cell Titre Glo, 72 hours) in A2058 cells. It is filed as cell-based. The following applies: Homo sapiens. The procedure, abridged: as §1

Each structure is given as a SMILES string.

Drawing on US12465603B2, “Phthalazinone based modulators for the treatment of disease” (Soley Therapeutics, Inc., priority 2022, dated 2025), this text covers IC50 for 41 compounds.

The IC50 is the concentration at which inhibition is half-maximal.

As to `Cc1cc(C)nc(N2CCN(C(=O)c3nn(C)c(=O)c4ccccc34)CC2)n1` [Compound 64], the IC50 in assay [1] is 1 to 10 µM; in assay [2] it was more than 20 µM.

As to `Cn1nc(C(=O)N2CCN(c3cccc4c3OCC4)CC2)c2ccccc2c1=O` [Compound 52], the IC50 in assay [1] and in assay [2] was not above 1 µM in each case.

Turning to `CC(C)c1cncc(N2CCN(C(=O)c3nn(C)c(=O)c4ccccc34)CC2)c1` [Compound 204], the IC50 in assay [1] and in assay [2] was more than 20 µM throughout.

With `Cn1nc(C(=O)N2CCN(c3nccc4occc34)CC2)c2ccccc2c1=O` [Compound 195], the IC50 in assay [1] and in assay [2] was 10 to 20 µM throughout.

With `CCn1nc(C(=O)N2CCN(c3ncccc3C)CC2)c2ccccc2c1=O` [Compound 106], the IC50 in assay [1] and in assay [2] was 1 to 10 µM throughout.

With `O=C(c1nn(CC(F)F)c(=O)c2ccccc12)N1CCN(c2ccccc2)CC1` [Compound 7], the IC50 in assay [1] and in assay [2] was more than 20 µM throughout.

As for `COc1ccncc1N1CCN(C(=O)c2nn(C)c(=O)c3ccc(F)cc23)CC1` [Compound 158], the IC50 in assay [1] and in assay [2] was not above 1 µM in each case.

For `CCn1nc(C(=O)N2CCN(c3ccc(C(F)(F)F)cc3C)CC2)c2ccccc2c1=O` [Compound 104], the IC50 in assay [1] and in assay [2] was 1 to 10 µM throughout.

Take `Cn1nc(C(=O)N2CCN(c3cc(C#N)ccc3C3CC3)CC2)c2ccccc2c1=O` [Compound 62]: the IC50 in assay [1] and in assay [2] was not above 1 µM each time.

In the case of `CCOc1ccccc1N1CCN(C(=O)c2nn(CC)c(=O)c3ccccc23)CC1` [Compound 134], the IC50 in assay [1] and in assay [2] was not above 1 µM throughout.

Take `Cn1nc(C(=O)N2CCN(c3ccccc3C3CC3)CC2)c2ccncc2c1=O` [Compound 181]: the IC50 in assay [1] and in assay [2] was not above 1 µM throughout.

For `CCn1nc(C(=O)N2CCN(c3ccc(F)c(OC)c3)CC2)c2ccccc2c1=O` [Compound 150], the IC50 in assay [1] and in assay [2] was not above 1 µM throughout.

On to `CCn1nc(C(=O)N2CCN(c3ccccc3OCCOC)CC2)c2ccccc2c1=O` [Compound 129], for which the IC50 in assay [1] and in assay [2] was more than 20 µM each time.

With `Cn1nc(C(=O)N2CCN(c3cncc(C4CC4)c3)CC2)c2cc(F)ccc2c1=O` [Compound 159], the IC50 in assay [1] and in assay [2] was not above 1 µM each time.

For `Cn1nc(C(=O)N2CCN(c3cccc(C#N)c3)CC2)c2ccccc2c1=O` [Compound 49], the IC50 in assay [1] and in assay [2] was not above 1 µM in each case.

For the compound `Cc1cc(C)cc(N2CCN(C(=O)c3nn(C)c(=O)c4ccncc34)CC2)c1` [Compound 215], the figures for the IC50 in assay [1] and in assay [2] were not above 1 µM and 1 to 10 µM, respectively.

In the case of `Cc1cc(Cl)cc(N2CCN(C(=O)c3nn(C)c(=O)c4ccncc34)CC2)c1` [Compound 221], the IC50 in assay [1] and in assay [2] was not above 1 µM throughout.

Take `COc1cc(F)cc(N2CCN(C(=O)c3nn(C)c(=O)c4ccncc34)CC2)c1` [Compound 176]: the IC50 in assay [1] and in assay [2] was not above 1 µM each time.

With `Cn1nc(C(=O)N2CCN(c3cccc(Cl)c3)CC2)c2ccccc2c1=O` [Compound 47], the IC50 in assay [1] and in assay [2] was not above 1 µM in each case.

For `CCn1nc(C(=O)N2CCN(c3ccc(F)cc3C3CC3)CC2)c2ccccc2c1=O` [Compound 119], the IC50 in assay [1] and in assay [2] was not above 1 µM in each case.

Turning to `Cn1nc(C(=O)N2CCN(c3cccc(C#N)c3)CC2)c2cc(F)ccc2c1=O` [Compound 157, 3-(4-(7-fluoro-3-methyl-4-oxo-3,4-dihydrophthalazine-1-carbonyl)piperazin-1-yl)benzonitrile], the IC50 in assay [1] and in assay [2] was not above 1 µM throughout.

Turning to `Cc1ccc(C#N)cc1N1CCN(C(=O)c2nn(C)c(=O)c3ccccc23)CC1` [Compound 67], the IC50 in assay [1] and in assay [2] was not above 1 µM throughout.

With `Cn1nc(C(=O)N2CCN(c3cc(F)cc(OC(F)F)c3)CC2)c2ccccc2c1=O` [Compound 198], the IC50 in assay [1] and in assay [2] was not above 1 µM each time.

As for `Cn1nc(C(=O)N2CCN(c3cc(F)cc(C#N)c3)CC2)c2cc(F)ccc2c1=O` [Compound 212], the IC50 in assay [1] and in assay [2] was not above 1 µM each time.

On to `Cn1nc(C(=O)N2CCN(c3cc(C#N)ccc3C(F)F)CC2)c2ccccc2c1=O` [Compound 200], for which the IC50 in assay [1] and in assay [2] was 1 to 10 µM in each case.

`CCn1nc(C(=O)N2CCN(c3cccc4c3oc(=O)n4C)CC2)c2ccccc2c1=O` [Compound 90]: the IC50 in assay [1] and in assay [2] was more than 20 µM throughout.

As for `COc1cc(C#N)ncc1N1CCN(C(=O)c2nn(C)c(=O)c3ccccc23)CC1` [Compound 24], the IC50 in assay [1] and in assay [2] was more than 20 µM throughout.

As to `COc1ncccc1N1CCN(C(=O)c2nn(C)c(=O)c3ccccc23)CC1` [Compound 20], the IC50 in assay [1] and in assay [2] was 1 to 10 µM each time.

Regarding `CCn1nc(C(=O)N2CCN(c3cccc(F)c3)CC2)c2ccccc2c1=O` [Compound 146], the IC50 in assay [1] and in assay [2] was not above 1 µM throughout.

Take `COc1ccc(F)c(N2CCN(C(=O)c3nn(C)c(=O)c4ccccc34)CC2)c1` [Compound 44]: the IC50 in assay [1] and in assay [2] was not above 1 µM in each case.

On to `CCn1nc(C(=O)N2CCN(c3ncc(F)cc3C(F)(F)F)CC2)c2ccccc2c1=O` [Compound 140], for which the IC50 in assay [1] and in assay [2] was 1 to 10 µM throughout.

As for `CCn1nc(C(=O)N2CCN(c3ncc(F)cc3C3CC3)CC2)c2ccccc2c1=O` [Compound 88], the IC50 in assay [1] and in assay [2] was not above 1 µM throughout.

`CCn1nc(C(=O)N2CCN(c3cc(F)ccn3)CC2)c2ccccc2c1=O` [Compound 109]: the IC50 in assay [1] and in assay [2] was 1 to 10 µM each time.

For `COc1ccccc1C1(C)CCN(C(=O)c2nn(C)c(=O)c3ccccc23)CC1` [Compound 249, 4-(4-(2-methoxyphenyl)-4-methylpiperidine-1-carbonyl)-2-methylphthalazin-1(2H)-one], the IC50 in assay [1] and in assay [2] was 1 to 10 µM each time.

As for `CCn1nc(C(=O)N2CCN(c3ccccc3F)CC2)c2ccccc2c1=O` [Compound 100], the IC50 in assay [1] was not above 1 µM; in assay [2], 1 to 10 µM.

As for `CCn1nc(C(=O)N2CCN(c3cnccc3OC)CC2)c2ccccc2c1=O` [Compound 118], the IC50 in assay [1] and in assay [2] was not above 1 µM in each case.

Consider `Cc1cccc(N2CCN(C(=O)c3nn(C)c(=O)c4ccccc34)CC2)c1` [Compound 25], for which the IC50 in assay [1] and in assay [2] was not above 1 µM throughout.

Regarding `Cn1nc(C(=O)N2CCN(c3cncc(C#N)c3)CC2)c2cc(F)ccc2c1=O` [Compound 234, 5-(4-(7-fluoro-3-methyl-4-oxo-3,4-dihydrophthalazine-1-carbonyl)piperazin-1-yl)nicotinonitrile], the IC50 in assay [1] and in assay [2] was more than 20 µM each time.

As for `CCn1nc(C(=O)N2CCN(c3nnccc3OC)CC2)c2ccccc2c1=O` [Compound 94], the figures for the IC50 in assay [1] and in assay [2] were 1 to 10 µM and 10 to 20 µM, respectively.

`COc1cncc(N2CCN(C(=O)c3nn(C)c(=O)c4ccccc34)CC2)c1` [Compound 35]: the IC50 in assay [1] and in assay [2] was 1 to 10 µM in each case.

As for `Cn1nc(C(=O)N2CCN(c3nccnc3C3CC3)CC2)c2ccccc2c1=O` [Compound 21], the IC50 in assay [1] was 1 to 10 µM; in assay [2], more than 20 µM.
